# Reference: patent US20230398130A1, “METHODS AND COMPOSITIONS FOR DIFFERENTIATING STEM CELLS” (Massachusetts Institute of Technology, priority 2020, published 2023)
# Structures can show the parent of a compound that is named as a salt.
# Columns and labels:
# [1] = system: ISC-enriched organoids; assay: Primary screen, 384-well 2.5-D organoid differentiation (ENR+CD, 6 days): carbachol-induced lysozyme secretion (LYZ.S); assay type: cell-based, murine; settings: primary screen; for Z.LYZ.S: standard z score; for SSMD.LYZ.S: strictly standardized mean difference; for Dose.FC.LYZ.S: FC vs plate median
# Source text: (§1) High-throughput screening.
# [2] = system: ISC-enriched organoids; assay: Primary screen, 384-well 2.5-D organoid differentiation (ENR+CD, 6 days): basal lysozyme secretion (LYZ.NS); assay type: cell-based, murine; settings: for SSMD.LYZ.NS: strictly standardized mean difference; for Dose.FC.LYZ.NS: FC vs plate median
# Source text: as §1
# [3] = system: ISC-enriched organoids; assay: Primary screen, 384-well 2.5-D organoid differentiation (ENR+CD, 6 days, Target Selective Inhibitor Library, vs whole-plate median): ATP (CellTiter-Glo 3D, CTG); settings: for SSMD.CTG: strictly standardized mean difference; for Dose.FC.CTG: FC vs plate median
# [4] = 1st of the 4 dose lines of the treatment (dose not given)
# [5] = 2nd of the 4 dose lines of the treatment (dose not given)
# [6] = 3rd of the 4 dose lines of the treatment (dose not given)
# [7] = 4th of the 4 dose lines of the treatment (dose not given)
# [8] = primary screen, 1st of the 4 dose lines of the treatment (dose not given)
# [9] = primary screen, 2nd of the 4 dose lines of the treatment (dose not given)
# [10] = primary screen, 3rd of the 4 dose lines of the treatment (dose not given)
# [11] = primary screen, 4th of the 4 dose lines of the treatment (dose not given)
# [12] = Dose 0.08 uM, standard z score of FC
# [13] = Dose 0.40 uM, standard z score of FC
# [14] = Dose 2.00 uM, standard z score of FC
# [15] = Dose 10.00 uM, standard z score of FC
# [16] = Dose 0.08 uM, primary screen, standard z score
# [17] = Dose 0.40 uM, primary screen, standard z score
# [18] = Dose 2.00 uM, primary screen, standard z score
# [19] = Dose 10.00 uM, primary screen, standard z score
SMILES,"Z.LYZ.S [1, 4]","Z.LYZ.S [1, 5]","Z.LYZ.S [1, 6]","Z.LYZ.S [1, 7]","SSMD.LYZ.S [1, 4]","SSMD.LYZ.S [1, 5]","SSMD.LYZ.S [1, 6]","SSMD.LYZ.S [1, 7]","SSMD.LYZ.NS [2, 8]","SSMD.LYZ.NS [2, 9]","SSMD.LYZ.NS [2, 10]","SSMD.LYZ.NS [2, 11]","Z.CTG [3, 12]","Z.CTG [3, 13]","Z.CTG [3, 14]","Z.CTG [3, 15]","SSMD.CTG [3, 8]","SSMD.CTG [3, 9]","SSMD.CTG [3, 10]","SSMD.CTG [3, 11]",also measured
CC(C)C[C@H](NC(=O)CNC(=O)c1cc(Cl)ccc1Cl)B(O)O [MLN2238],−2.478,−2.317,−2.280,−2.394,−1.588,−1.620,−1.733,−1.739,−1.766,−1.837,−1.787,−2.223,−3.952,−2.637,−2.944,−4.205,−2.218,−0.972,−1.669,−1.891,
O=C(O)c1ccc(Nc2ncc3c(n2)-c2ccc(Cl)cc2C(c2c(F)cccc2F)=NC3)cc1 [MLN8054],0.274,1.081,−0.562,−1.274,0.241,0.554,−0.486,−0.964,0.618,0.061,−0.713,−0.870,0.063,0.033,−1.111,−1.191,0.080,0.035,−0.959,−1.480,
CCC(CC)(NC(=O)C(C)C)C(=O)N[C@@H](CCCN=C(N)N)C(=O)NC1(C(=O)NC(c2ccc(F)cc2)c2ccc(F)cc2)CCCC1 [MM-102],−0.177,−0.009,−0.226,−1.252,−0.148,−0.010,−0.218,−0.881,−0.233,−0.084,0.128,−0.792,−0.489,−0.315,−0.557,−0.964,−0.485,−0.493,−0.877,−1.350,"Dose.FC.LYZ.S ([1]; Dose 0.08 uM): −0.027 log 2 fold change; Dose.FC.LYZ.S ([1]; Dose 0.40 uM): −0.001 log 2 fold change; Dose.FC.LYZ.S ([1]; Dose 2.00 uM): −0.035 log 2 fold change; Dose.FC.LYZ.S ([1]; Dose 10.00 uM): −0.194 log 2 fold change; Dose.FC.LYZ.NS ([2]; Dose 0.08 uM, primary screen): −0.025 log 2 fold change; Z.LYZ.NS [2, 12]: −0.220; Dose.FC.LYZ.NS ([2]; Dose 0.40 uM, primary screen): −0.010 log 2 fold change; Z.LYZ.NS [2, 13]: −0.090; Dose.FC.LYZ.NS ([2]; Dose 2.00 uM, primary screen): 0.026 log 2 fold change; Z.LYZ.NS [2, 14]: 0.230; Dose.FC.LYZ.NS ([2]; Dose 10.00 uM, primary screen): −0.164 log 2 fold change; Z.LYZ.NS [2, 15]: −1.424; Dose.FC.CTG ([3]; Dose 0.08 uM, primary screen): −0.205 log 2 fold change; Dose.FC.CTG ([3]; Dose 0.40 uM, primary screen): −0.132 log 2 fold change; Dose.FC.CTG ([3]; Dose 2.00 uM, primary screen): −0.233 log 2 fold change; Dose.FC.CTG ([3]; Dose 10.00 uM, primary screen): −0.403 log 2 fold change"
S=C=Nc1cccc(NC(=S)NCCCCNC(=S)Nc2cccc(N=C=S)c2)c1 [MRS 2578],,,,,,,,,,,,,−0.339,0.146,−0.381,−0.544,,,,,"Dose.FC.LYZ.S ([1]; Dose 0.08 uM): 0.095 log 2 fold change; Dose.FC.LYZ.S ([1]; Dose 0.40 uM): 0.067 log 2 fold change; Dose.FC.LYZ.S ([1]; Dose 2.00 uM): 0.023 log 2 fold change; Dose.FC.LYZ.S ([1]; Dose 10.00 uM): 0.013 log 2 fold change; Dose.FC.LYZ.NS ([2]; Dose 0.08 uM, primary screen): 0.116 log 2 fold change; Z.LYZ.NS [2, 12]: 1.011; Dose.FC.LYZ.NS ([2]; Dose 0.40 uM, primary screen): 0.036 log 2 fold change; Z.LYZ.NS [2, 13]: 0.311; Dose.FC.LYZ.NS ([2]; Dose 2.00 uM, primary screen): 0.031 log 2 fold change; Z.LYZ.NS [2, 14]: 0.270; Dose.FC.LYZ.NS ([2]; Dose 10.00 uM, primary screen): 0.032 log 2 fold change; Z.LYZ.NS [2, 15]: 0.276; Dose.FC.CTG ([3]; Dose 0.08 uM, primary screen): −0.142 log 2 fold change; Dose.FC.CTG ([3]; Dose 0.40 uM, primary screen): 0.061 log 2 fold change; Dose.FC.CTG ([3]; Dose 2.00 uM, primary screen): −0.159 log 2 fold change; Dose.FC.CTG ([3]; Dose 10.00 uM, primary screen): −0.228 log 2 fold change"
COc1cc(-n2c(=S)[nH]c3ccccc3c2=O)c(Cl)cc1Cl [Mdivi-1],0.511,0.196,−0.310,−2.655,0.520,0.152,−0.196,−2.328,0.715,0.481,−0.093,−1.749,,,,,0.026,−0.072,−0.356,−1.838,"Dose.FC.LYZ.S ([1]; Dose 0.08 uM): 0.079 log 2 fold change; Dose.FC.LYZ.S ([1]; Dose 0.40 uM): 0.030 log 2 fold change; Dose.FC.LYZ.S ([1]; Dose 2.00 uM): −0.048 log 2 fold change; Dose.FC.LYZ.S ([1]; Dose 10.00 uM): −0.411 log 2 fold change; Dose.FC.LYZ.NS ([2]; Dose 0.08 uM, primary screen): 0.177 log 2 fold change; Z.LYZ.NS [2, 16]: 1.537; Dose.FC.LYZ.NS ([2]; Dose 0.40 uM, primary screen): 0.156 log 2 fold change; Z.LYZ.NS [2, 17]: 1.358; Dose.FC.LYZ.NS ([2]; Dose 2.00 uM, primary screen): −0.022 log 2 fold change; Z.LYZ.NS [2, 18]: −0.194; Dose.FC.LYZ.NS ([2]; Dose 10.00 uM, primary screen): −0.268 log 2 fold change; Z.LYZ.NS [2, 19]: −2.333; Dose.FC.CTG ([3]; Dose 0.08 uM, primary screen): 0.008 log 2 fold change; Z.CTG [3, 16]: 0.019; Dose.FC.CTG ([3]; Dose 0.40 uM, primary screen): −0.031 log 2 fold change; Z.CTG [3, 17]: −0.074; Dose.FC.CTG ([3]; Dose 2.00 uM, primary screen): −0.112 log 2 fold change; Z.CTG [3, 18]: −0.267; Dose.FC.CTG ([3]; Dose 10.00 uM, primary screen): −0.527 log 2 fold change; Z.CTG [3, 19]: −1.259"
CC12CC3CC(C)(C1)CC(N)(C3)C2 [Memantine HCl],0.586,0.112,0.328,−0.138,0.420,0.134,0.292,−0.142,0.489,0.038,0.745,−0.407,,,,,0.214,0.219,−0.016,0.145,"Z.CTG [3, 16]: 0.199; Z.CTG [3, 17]: 0.173; Z.CTG [3, 18]: −0.018; Z.CTG [3, 19]: 0.184"
CN(Cc1cnc2nc(N)nc(N)c2n1)c1ccc(C(=O)N[C@@H](CCC(=O)O)C(=O)O)cc1 [Methotrexate],−1.029,−0.831,−1.143,−1.007,−0.943,−0.627,−0.866,−0.718,−0.745,−0.349,−1.130,−0.527,,,,−1.534,−1.489,−1.028,−1.982,−1.176,"Z.CTG [3, 16]: −1.469; Z.CTG [3, 17]: −1.724; Z.CTG [3, 18]: −1.674"
